According to patent US20250002914A1, “NUCLEIC ACID AGENTS FOR TREATMENT OF NON-SMALL-CELL LUNG CANCER” (UNIVERSITY COLLEGE DUBLIN, priority 2021, published 2025):

How the values were obtained:
Assay type in all cases: cell-based
Tier II genes = experiment: Tier II genes' expression following cisplatin treatment
H460 cells = experiment: Cisplatin dose response, H460
Procedure: (§1) Cisplatin screen. Optimal cisplatin working concentrations were established via dose response and cell doubling time. In the dose response, 3,000 A549 and H460 cells were plated in 96-well plates and treated with a range of cisplatin concentrations. After 72 h, CellTiter-Glo 2.0 (Promega, cat. no. G9242) was added to the media (1:1), and luminescence was recorded. For the cell doubling time, 1M cells were plated in 10 cm plates. Different cisplatin concentrations were added at indicated concentrations, and living cells counted every 2-3 days up to 14 days. Cisplatin survival screen: 48M and 96M cells were plated at TO and treated with 6.5 μM and 25 μM of Cisplatin for A549 cells and 2 μM and 10 μM for H460 cells, corresponding to IC30 and IC80, respectively. Cell pellets were collected after 14 and 21 days. The death screen was carried out as follows: 144M cells were seeded and treated with cisplatin at 2 μM and 1 μM (IC20) for A549 and H460, respectively. Every 24 h, for five days, floating (dead) cells were collected and pooled together for gDNA extraction.

A549 cells = experiment: Cisplatin dose response, A549
Procedure: as §1

With `N.N.[Cl][Pt][Cl]` [Cisplatin, cisplatin] the “Tier II genes' expression” value (Tier II genes) was “upregulation”, the IC20 (H460 cells) was 1000 nM and the IC30 (H460 cells) was 2 µM. For the same compound, the IC80 (H460 cells) was 10 µM, the IC20 (A549 cells) was 2000 nM and the IC30 (A549 cells) was 6.5 µM. It also gave an IC80 (A549 cells) of 25 µM.
